Experimental data published in US20040121994A1, “Novel amides that activate soluble guanylate cyclase” (priority 2002, published 2004).

Target: T1, soluble guanylate cyclase (sGC), α1 and β1 subunits of guanylate cyclase expressed in Sf9 cells (Homo sapiens, UniProt Q02108+Q02153)
T1 construct: made in house; host or cells: Sf9 insect cells (baculovirus co-infection)
T1 sequence (Q02108 1-690): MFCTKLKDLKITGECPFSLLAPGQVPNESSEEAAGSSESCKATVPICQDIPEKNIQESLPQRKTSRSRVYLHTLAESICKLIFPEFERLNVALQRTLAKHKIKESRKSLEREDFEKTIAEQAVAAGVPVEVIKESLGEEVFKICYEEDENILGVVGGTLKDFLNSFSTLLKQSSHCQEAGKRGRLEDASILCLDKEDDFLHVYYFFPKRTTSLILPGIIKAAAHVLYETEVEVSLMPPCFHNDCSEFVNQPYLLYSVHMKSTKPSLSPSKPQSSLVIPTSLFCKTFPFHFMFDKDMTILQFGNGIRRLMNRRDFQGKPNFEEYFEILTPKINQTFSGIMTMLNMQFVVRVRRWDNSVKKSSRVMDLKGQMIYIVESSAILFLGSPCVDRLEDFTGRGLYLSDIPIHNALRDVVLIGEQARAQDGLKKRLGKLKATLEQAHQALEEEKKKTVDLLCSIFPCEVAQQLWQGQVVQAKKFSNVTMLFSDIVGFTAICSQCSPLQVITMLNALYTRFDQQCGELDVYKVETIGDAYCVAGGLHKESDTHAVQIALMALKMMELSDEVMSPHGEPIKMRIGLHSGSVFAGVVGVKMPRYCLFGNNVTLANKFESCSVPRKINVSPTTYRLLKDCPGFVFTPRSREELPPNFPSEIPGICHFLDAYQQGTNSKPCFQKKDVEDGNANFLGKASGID
T1 sequence (Q02153 1-619): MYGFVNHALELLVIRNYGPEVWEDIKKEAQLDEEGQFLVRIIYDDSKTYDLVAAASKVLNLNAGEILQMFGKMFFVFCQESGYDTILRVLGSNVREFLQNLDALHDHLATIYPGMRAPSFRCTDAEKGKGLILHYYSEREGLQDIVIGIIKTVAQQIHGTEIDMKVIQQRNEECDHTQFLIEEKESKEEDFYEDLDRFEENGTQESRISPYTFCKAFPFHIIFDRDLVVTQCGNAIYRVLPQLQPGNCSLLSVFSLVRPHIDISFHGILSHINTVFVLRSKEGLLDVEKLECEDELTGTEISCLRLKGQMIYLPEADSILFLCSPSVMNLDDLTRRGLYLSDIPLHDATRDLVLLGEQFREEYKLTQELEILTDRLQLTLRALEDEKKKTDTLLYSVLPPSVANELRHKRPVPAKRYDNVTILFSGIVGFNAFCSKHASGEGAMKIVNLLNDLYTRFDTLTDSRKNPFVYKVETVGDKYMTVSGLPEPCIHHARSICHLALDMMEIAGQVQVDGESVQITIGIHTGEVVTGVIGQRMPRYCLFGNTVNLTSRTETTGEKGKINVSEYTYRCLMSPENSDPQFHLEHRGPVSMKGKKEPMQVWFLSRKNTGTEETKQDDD
Test: Guanylate cyclase assay (formation of cyclic GMP from GTP)
Assay type: biochemical
Settings: for Mean activation at 100 μM: (activity of compound at 100 μM with 1 μM SNP)−(activity of compound at 100 μM)/(activity of SNP at 1 μM)−(basal activity of sGC); for Mean efficacy of compound combined with 1 μM of SNP, [%]: compound at 100 μM with 1 μM sodium nitro prusside (SNP); for Mean efficacy of compound combined with 1 μM of SNP, [%] / Emax at 100 µM: normalized with the activity of 100 μM YC-1 (without SNP) as 100%; for Emax at 100 µM: compound at 100 μM without SNP, read-out: Mean basal efficacy of compound alone at 100 μM, [%]
Method: Sf9 cells were cultured in Sf-90011 medium supplemented with 10% (v/v) fetal calf serum at 28° C. to give a count of 6×10^5 cells/ml. The cells were then infected with a mixture of the virus stocks for the α1 and β1 subunits of guanylate cyclase at a multiplicity of infection of 0.1 pfu/cell. The cells were harvested 72 hours after infection and were pelleted by centrifugation. The resulting cell pellets were homogenized with Polytron homogenizer in 3 volumes of 20 mM Tris-HCl (pH 7.6) containing 1 mM EDTA, 5 mM dithiothreitol, 90 mM NaCl, 10% glycerol, and protease inhibitors mix (Roche Molecular Biochemicals). The homogenate was centrifuged at 50,000×g for 60 minutes and the supernatant was aliquotted and stored at −80° C.
Compounds of the present invention were dissolved in DMSO to make 100 mM and saved as stocks at −20° C. When compounds were tested, prepared 10-fold concentrated solutions with 10% DMSO. Then added 10 μl of 10-fold concentrated compound solutions to the reaction mixture of total 100 μl.
Guanylate cyclase activity was measured by the formation of cyclic GMP from GTP in a total volume of 100 μl. Guanylate cyclase-expressed Sf9 cell high-speed supernatant was used as an enzyme source for the assay. The reaction mixture containing 0.1 μl enzyme (Sf9 high-speed sup), compound solution, 50 mM Tris-HCl (pH 7.6), 4 mM MgCl2, 0.5 mM IBMX, 15 mM creatine phosphate, 20 μg creatine phosphokinase, 0.1% BSA and 1 mM GTP was incubated at 37° C. for 15 minutes. After the reaction, 0.9 ml of 50 mM sodium acetate buffer (pH 5.8) was added followed by boiling for 3 minutes to stop the reaction. The solution was centrifuged at 3000 rpm for 15 minutes at room temperature and cyclic GMP in 20 μl of the resulting supernatant was measured according to the protocol of Amersham cyclic GMP enzymeimmunoassay system (purchased from Sigma, catalogue number RPN 226).
Compounds of the present invention were tested at 100 μM with and without 1 μM sodium nitro prusside (SNP). 1-Benzyl-3-hydroxymethyl-2-furylindazole (YC-1) was included as a standard for each assay. The data was normalized with the activity of 100 μM YC-1 (without SNP) as 100%. Mean basal efficacy, in Table 1, was expressed as a percentage of 100 μM YC-1 (without SNP).
The mean activation, in Table 1, was calculated based on the formula: (activity of compound of the present invention at 100 μM with 1 μM SNP)−(activity of compound of the present invention at 100 μM)/(activity of SNP at 1 μM)−(basal activity of sGC).

| Structure (SMILES) | Mean activation at 100 μM | Mean efficacy of compound combined with 1 μM of SNP, [%] | Emax at 100 µM [%] |
| --- | --- | --- | --- |
| Cc1ccc(Sc2ccccc2/C=C/C(=O)NC2CCC(O)CC2)cc1 (stereo not drawn) [Example 42, (2E)-N-(4-hydroxycyclohexyl)-3-{2-[(4-methylphenyl)thio]phenyl}acrylamide] | 4.8 | 58 | 14 |
| COc1ccc(Sc2ccc(C)cc2)c(/C=C/C(=O)NC2CCC(O)CC2)c1 (stereo not drawn) [Example 44, (2E)-N-(4-hydroxycyclohexyl)-3-{5-methoxy-2-[(4-methylphenyl)thio]phenyl}acrylamide] | 3.5 | 89 | 36 |
| O=C(/C=C/c1ccccc1Sc1ccccc1)NC1CCCCC1O (stereo not drawn) [Example 46, (2E)-N-(2-hydroxycyclohexyl)-3-[2-(phenylthio)phenyl]acrylamide] | 4.3 | 121 | 54 |
| Cc1ccc(Sc2ccccc2/C=C/C(=O)NC2CCCCC2O)cc1 (stereo not drawn) [Example 47, (2E)-N-(2-hydroxycyclohexyl)-3-{2-[(4-methylphenyl)thio]phenyl}acrylamide] | 2.8 | 44 | 16 |
| COc1cccc(Sc2ccccc2/C=C/C(=O)NC2CCCCC2O)c1 (stereo not drawn) [Example 48, (2E)-N-(2-hydroxycyclohexyl)-3-{2-[(3-methoxyphenyl)thio]phenyl}acrylamide] | 4.6 | 102 | 20 |
| COc1ccc(Sc2ccccc2/C=C/C(=O)NC2CCCCC2O)cc1 (stereo not drawn) [Example 49, (2E)-N-(2-hydroxycyclohexyl)-3-{2-[(4-methoxyphenyl)thio]phenyl}acrylamide] | 3.7 | 79 | 15 |
| COc1cccc(Sc2ccccc2/C=C/C(=O)NC2CCC(O)CC2)c1 (stereo not drawn) [Example 50, (2E)-N-(4-hydroxycyclohexyl)-3-{2-[(3-methoxyphenyl)thio]phenyl}acrylamide] | 6.4 | 175 | 68 |
| COc1ccc(Sc2ccccc2/C=C/C(=O)NC2CCC(O)CC2)cc1 (stereo not drawn) [Example 51, (2E)-N-(4-hydroxycyclohexyl)-3-{2-[(4-methoxyphenyl)thio]phenyl}acrylamide] | 7.2 | 258 | 119 |
| Cc1cccc(Sc2ccccc2/C=C/C(=O)NC2CCC(O)CC2)c1 (stereo not drawn) [Example 52, (2E)-N-(4-hydroxycyclohexyl)-3-{2-[(3-methylphenyl)thio]phenyl}acrylamide] | 2.7 | 50 | 11 |
| Cc1ccc(Sc2ccccc2/C=C/C(=O)NC(C)CCCC(C)(C)O)c(C)c1 (stereo not drawn) [Example 53, (2E)-3-{2-[(2,4-dimethylphenyl)thio]phenyl}-N-(5-hydroxy-1,5-dimethylhexyl)acrylamide] | 1.7 | 10 | 4 |
| O=C(/C=C/c1cc(F)ccc1Sc1ccc(Cl)cc1)NCCCCO [Example 54, (2E)-3-{2-[(4-chlorophenyl)thio]-5-fluorophenyl}-N-(4-hydroxybutyl)acrylamide] | 13.0 | 186 | 85 |

Next, values leading:

| Mean activation at 100 μM | Mean efficacy of compound combined with 1 μM of SNP, [%] | Emax at 100 µM [%] | Structure (SMILES) |
| --- | --- | --- | --- |
| 5.3 | 213 | 143 | CC(C)CCSc1ccccc1/C=C/C(=O)NC1CCC(O)CC1 (stereo not drawn) [Example 55, (2E)-N-(4-hydroxycyclohexyl)-3-{2-[(3-methylbutyl)thio]phenyl}acrylamide] |
| 8.3 | 276 | 169 | CC(C)CCSc1ccccc1/C=C/C(=O)NC1CCCCC1O (stereo not drawn) [Example 56, (2E)-N-(2-hydroxycyclohexyl)-3-{2-[(3-methylbutyl)thio]phenyl}acrylamide] |
| 8.4 | 303 | 200 | CC(C)CCSc1ccccc1/C=C/C(=O)NCCCO [Example 57, (2E)-N-(3-hydroxypropyl)-3-{2-[(3-methylbutyl)thio]phenyl}acrylamide] |
| 7.8 | 307 | 215 | CC(C)CCSc1ccccc1/C=C/C(=O)NCCCCO [Example 58, (2E)-N-(4-hydroxybutyl)-3-{2-[(3-methylbutyl)thio]phenyl}acrylamide] |
| 8.4 | 221 | 162 | CC(C)CCSc1ccccc1/C=C/C(=O)NCCCCCO [Example 59, (2E)-N-(5-hydroxypentyl)-3-{2-[(3-methylbutyl)thio]phenyl}acrylamide] |
| 8.3 | 165 | 115 | CC(C)CCSc1ccccc1/C=C/C(=O)N1CCC(O)CC1 [Example 60, 1-((2E)-3-{2-[(3-methylbutyl)thio]phenyl}-2-propenoyl)-4-piperidinol] |
| 10.2 | 165 | 103 | CC(C)CCSc1ccccc1/C=C/C(=O)N1CCCC(O)C1 (stereo not drawn) [Example 61, 1-((2E)-3-{2-[(3-methylbutyl)thio]phenyl}-2-propenoyl)-3-piperidinol] |
| 6.8 | 164 | 125 | CC(C)CCSc1ccccc1/C=C/C(=O)N1CCC(C(N)=O)CC1 [Example 63, 1-((2E)-3-{2-[(3-methylbutyl)thio]phenyl}-2-propenoyl)-4-piperidinecarboxamide] |
